Measurements: the supplement of paper PMC10307832

Tests used:
Test in all cases: relative viability (nuclei count vs DMSO), 5 days (fraction); higher = more cells survive
[1] = compound: CC(C)N(CCCNC(=O)Nc1ccc(C(C)(C)C)cc1)C[C@H]1O[C@@H](n2ccc3c(N)ncnc32)[C@H](O)[C@@H]1O + O=C(CCCCCCC(=O)Nc1ccccc1)NO [Vorinostat] (partner 1 µM)
How it was run: (§1)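 Relative viability equals treated-well nuclei counts divided by vehicle-well nuclei counts. Counts came from 4× images of lung cancer cell lines grown in 1536-well plates for 5 days after pin-tool dosing on the day after seeding. Dosing used one drug alone or a fixed anchor-drug dose plus five library-drug doses (not always all listed) in √10 steps, and values are medians of duplicate plates.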

[2] = compound: CC(C)N(CCCNC(=O)Nc1ccc(C(C)(C)C)cc1)C[C@H]1O[C@@H](n2ccc3c(N)ncnc32)[C@H](O)[C@@H]1O + N=C(N)NC(=N)NCCc1ccccc1 [Phenformin] (partner 250 µM)
How it was run: as §1

[3] = compound: CC(C)=CC[C@@H](O)C1=CC(=O)c2c(O)ccc(O)c2C1=O [Shikonin] + CC(=O)c1c(C)c2cnc(Nc3ccc(N4CCNCC4)cn3)nc2n(C2CCCC2)c1=O [Palbociclib] (partner 0.5 µM)
How it was run: as §1

[4] = compound: CC(C)N(CCCNC(=O)Nc1ccc(C(C)(C)C)cc1)C[C@H]1O[C@@H](n2ccc3c(N)ncnc32)[C@H](O)[C@@H]1O + Nc1ncn([C@H]2C[C@H](O)[C@@H](CO)O2)c(=O)n1 [Decitabine] (partner 2 µM)
How it was run: as §1

UMC-11
relative viability ([1]; first compound 0.08 µM): 0.357
relative viability ([1]; first compound 0.253 µM): 0.419
relative viability ([1]; first compound 0.8 µM): 0.431
relative viability ([1]; first compound 2.53 µM): 0.35
relative viability ([1]; first compound 8 µM): 0.386
relative viability ([2]; first compound 0.08 µM): 0.321
relative viability ([2]; first compound 0.253 µM): 0.302
relative viability ([2]; first compound 0.8 µM): 0.296
relative viability ([2]; first compound 2.53 µM): 0.349
relative viability ([2]; first compound 8 µM): 0.322
relative viability ([3]; first compound 0.01 µM): 0.297
relative viability ([3]; first compound 0.1 µM): 0.351
relative viability ([3]; first compound 0.3162 µM): 0.335
relative viability ([3]; first compound 1 µM): 0.338
relative viability ([4]; first compound 0.08 µM): 0.584
relative viability ([4]; first compound 0.253 µM): 0.621
relative viability ([4]; first compound 0.8 µM): 0.488
relative viability ([4]; first compound 2.53 µM): 0.534
relative viability ([4]; first compound 8 µM): 0.585
